Tested on: CQS (HB3, GCO3) and CQR (Dd2, FCB) strains of P. falciparum
Test: SYBR Green I antiplasmodial assay, several CQS and CQR strains
Format: cell-based, Plasmodium falciparum
Conditions: for activity vs. both CQR and CQS strains relative to 93: FIG. 23
Text: Bennett T. N.; Paguio, M.; Gligorijevic, B.; Seudieu, C.; Kosar, A. D.; Davidson, E.; Roepe, P. D. Novel, rapid, and inexpensive cell-based quantification of antimalarial drug efficacy. Antimicrob. Agents Chemother. 2004, 48, 1807-1810; Smilkstein, M.; Sriwilaijaroen, N.; Kelly, J. X.; Wilairat, P.; Riscoe, M. Simple and inexpensive fluorescence-based technique for high-throughput antimalarial drug screening. Antimicrob. Agents Chemother. 2004, 48, 1803-1806; and Johnson, J. D.; Dennull, R. A.; Gerena, L.; Lopez-Sanchez, M.; Roncal, N. E.; Waters, N.C. Assessment and continued validation of the malaria SYBR green I-based fluorescence assay for use in malaria drug screening. Antimicrob. Agents Chemother. 2007, 51, 1926-1933. […] Drake, N. L.; Creech, H. J.; Garman, J. A.; Haywood, S. T.; Peck, R. M.; van Hook, J. O.; Walton, E. Synthetic antimalrials. The preparation of certain 4-aminoquinolines. J. Am. Chem. Soc. […] Trans. R. Soc. Trop. Med. Hyg. […] J. Parasitol. 1983, 69, 97-105. The selectivity index provides a quantitative measure of the antimalarial activity against CQR strains relative to that against sensitive strains and thus indicates promising drug discovery leads. […] This can be combined with the introduction of a third basic amino function which should further favor accumulation of the drug within the acidic food vacuole of the parasite.
Bennett T. N.; Paguio, M.; Gligorijevic, B.; Seudieu, C.; Kosar, A. D.; Davidson, E.; Roepe, P. D. Novel, rapid, and inexpensive cell-based quantification of antimalarial drug efficacy. Antimicrob. Agents Chemother. 2004, 48, 1807-1810; Smilkstein, M.; Sriwilaijaroen, N.; Kelly, J. X.; Wilairat, P.; Riscoe, M. Simple and inexpensive fluorescence-based technique for high-throughput antimalarial drug screening. Antimicrob. Agents Chemother. 2004, 48, 1803-1806; and Johnson, J. D.; Dennull, R. A.; Gerena, L.; Lopez-Sanchez, M.; Roncal, N. E.; Waters, N.C. Assessment and continued validation of the malaria SYBR green I-based fluorescence assay for use in malaria drug screening. Antimicrob. Agents Chemother. 2007, 51, 1926-1933.
Drug activities were assessed and IC50 were quantified essentially as described previously. Delarue, S.; Girault, S.; Maes, L.; Debreu-Fontaine, M. A.; Labaeid, M.; Grellier, P.; Sergheraert, C. Synthesis and in vitro and in vivo antimalarial activity of new 4-anilinoquinolines. J. Med. Chem. 2001, 44, 2827-2833; and O'Neill, P. M.; Willock, D. J.; Hawley, S. R.; Bray, P. G.; Storr, R. C.; Ward, S. A.; Park, B. K. Synthesis, antimalarial activity, and molecular modeling of tebuquine analogues. J. Med. Chem. 1997, 40, 437-448.

| SMILES | IC50 (Plasmodium falciparum, read-out: IC50 vs. CQR parasites) [nM] | activity vs. both CQR and CQS strains relative to 93 |
| --- | --- | --- |
| CCN(CC)CCCCCOc1ccnc2cc(Cl)ccc12 [compound 94, O-(7-Chloro-4-quinolyl)-5-(N,N-diethylamino)pentanol] | ~1000 |  |
| CCN(CC)CC(CN(CC)CC)Oc1ccnc2cc(Cl)ccc12 [compound 101, 7-Chloro-4-(1′,3′-bis(diethylamino)-2′-propoxy)quinoline] |  | significantly less active |
| CCN(CC)CCCCC(CCCCN(CC)CC)Oc1ccnc2cc(Cl)ccc12 [compound 103, 7-Chloro-4-(1′,9′-bis(diethylamino)-5′-nonoxy)quinoline] |  | improved activity |
